Measured values taken from patent US9962453B2, “Immunogenic compound” (ALTIMMUNE UK LIMITED, priority 2013, dated 2018).
Counter-ions that a name gives are not always drawn. No end group written: not given here. PEG‑FIM = not defined here

Experiments:
human TLR8 = target: T1, human TLR8 (Homo sapiens, UniProt Q9NR97); assay: Human TLR8 HEK-Blue reporter gene assay (NF-kappaB activation, SEAP); type: cell-based; conditions: in comparison with R848
T1 construct: host or cells: HEK-Blue-hTLR8 (HEK293)
T1 sequence (Q9NR97 27-1041): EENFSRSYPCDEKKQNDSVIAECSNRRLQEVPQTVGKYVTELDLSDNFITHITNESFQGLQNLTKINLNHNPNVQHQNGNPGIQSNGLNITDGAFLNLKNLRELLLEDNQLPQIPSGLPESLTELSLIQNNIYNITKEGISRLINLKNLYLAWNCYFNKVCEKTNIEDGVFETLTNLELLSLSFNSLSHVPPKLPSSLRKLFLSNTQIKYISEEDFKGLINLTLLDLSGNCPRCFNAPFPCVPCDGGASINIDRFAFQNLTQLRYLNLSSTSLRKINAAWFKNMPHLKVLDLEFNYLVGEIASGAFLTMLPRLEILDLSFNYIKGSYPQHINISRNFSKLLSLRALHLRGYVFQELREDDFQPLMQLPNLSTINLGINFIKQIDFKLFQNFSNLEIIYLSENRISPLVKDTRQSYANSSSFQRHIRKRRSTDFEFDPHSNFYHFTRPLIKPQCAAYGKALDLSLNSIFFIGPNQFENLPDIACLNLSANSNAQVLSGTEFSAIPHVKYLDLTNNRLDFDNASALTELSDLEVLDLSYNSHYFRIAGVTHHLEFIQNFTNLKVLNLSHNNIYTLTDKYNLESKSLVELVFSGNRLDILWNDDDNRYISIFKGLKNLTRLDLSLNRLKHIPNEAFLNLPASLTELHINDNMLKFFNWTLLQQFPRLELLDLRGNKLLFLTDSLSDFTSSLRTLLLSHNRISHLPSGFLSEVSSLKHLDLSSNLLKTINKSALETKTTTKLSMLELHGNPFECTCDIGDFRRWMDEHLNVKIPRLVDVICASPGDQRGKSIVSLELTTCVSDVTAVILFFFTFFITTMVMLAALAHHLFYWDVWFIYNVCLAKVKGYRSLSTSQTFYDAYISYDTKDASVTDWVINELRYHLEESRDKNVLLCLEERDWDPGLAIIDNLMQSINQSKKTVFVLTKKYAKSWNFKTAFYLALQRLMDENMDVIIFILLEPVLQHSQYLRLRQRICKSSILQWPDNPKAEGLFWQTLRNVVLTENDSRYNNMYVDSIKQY
Experimental: (§1) The activity of different TLR-7 or TLR-8 agonist were tested using human TLR-specific HEK-Blue™ reporter gene assays (Invivogen, France). HEK-Blue™-hTLR7 cells and HEK-Blue™-hTLR8 cells were obtained by co-transfection of the human TLR7 gene or human TLR8 genes and an inducible SEAP (secreted embryonic alkaline phosphatase) reporter gene into HEK293 cells. The SEAP gene is placed under the control of the IFN-β minimal promoter fused to five NF-kappaB and AP-1-binding sites. Stimulation with a TLR ligand activates NF-kappaB and AP-1 which induce the production of SEAP. Cells were maintained in HEK-Blue™ selection medium containing Blasticidin, Zeocin and Normocin. HEK-Blue™ cells were incubated at a density of 10^5 cells/mL in a volume of 200 ul in 96 well plates. In the presence of the HEK-Blue™ detection media, the secretion of SEAP (proportional to the to the NF-kappaB induction) was quantified at […].

human TLR7 = target: T2, human TLR7 (Homo sapiens, UniProt Q9NYK1); assay: Human TLR7 HEK-Blue reporter gene assay (NF-kappaB activation, SEAP); type: cell-based; conditions: in comparison with R848
T2 construct: host or cells: HEK-Blue-hTLR7 (HEK293)
T2 sequence (Q9NYK1 27-1049): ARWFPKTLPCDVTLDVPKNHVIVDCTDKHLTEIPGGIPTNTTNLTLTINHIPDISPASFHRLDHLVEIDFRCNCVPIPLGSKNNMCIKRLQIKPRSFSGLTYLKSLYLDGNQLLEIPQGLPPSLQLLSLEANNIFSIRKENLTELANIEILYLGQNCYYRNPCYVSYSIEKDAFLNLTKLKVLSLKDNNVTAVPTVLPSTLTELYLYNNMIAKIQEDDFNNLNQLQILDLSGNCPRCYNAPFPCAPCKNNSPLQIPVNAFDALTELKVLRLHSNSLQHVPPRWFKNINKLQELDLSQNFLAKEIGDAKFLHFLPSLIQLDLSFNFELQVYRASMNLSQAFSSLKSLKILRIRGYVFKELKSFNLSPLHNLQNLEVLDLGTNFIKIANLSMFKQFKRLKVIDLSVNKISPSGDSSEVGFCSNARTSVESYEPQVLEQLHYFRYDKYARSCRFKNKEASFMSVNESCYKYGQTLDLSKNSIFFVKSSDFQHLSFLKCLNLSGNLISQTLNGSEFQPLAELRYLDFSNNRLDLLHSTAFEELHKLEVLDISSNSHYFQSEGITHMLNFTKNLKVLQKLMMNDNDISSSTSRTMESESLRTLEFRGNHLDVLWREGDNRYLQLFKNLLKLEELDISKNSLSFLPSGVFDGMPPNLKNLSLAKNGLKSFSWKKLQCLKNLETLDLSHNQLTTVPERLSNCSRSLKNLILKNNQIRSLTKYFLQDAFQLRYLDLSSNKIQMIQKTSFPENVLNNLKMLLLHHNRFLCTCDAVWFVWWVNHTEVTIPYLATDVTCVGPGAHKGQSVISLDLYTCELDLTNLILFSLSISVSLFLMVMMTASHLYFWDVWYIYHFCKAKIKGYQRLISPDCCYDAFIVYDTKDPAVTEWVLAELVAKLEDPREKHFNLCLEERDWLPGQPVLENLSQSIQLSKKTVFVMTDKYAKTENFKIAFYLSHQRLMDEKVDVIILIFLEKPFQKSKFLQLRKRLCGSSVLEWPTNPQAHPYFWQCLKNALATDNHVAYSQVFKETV
Experimental: as §1

[1] = tested on: T cell immune response to FP-02.2 vaccine peptides; type: in vivo, BALB/c mice; conditions: conclusions of Example 2

Row | Compound | NF-kappaB activation in HEK-293 cells expressing TLR-8 (human TLR8) | NF-kappaB activation in HEK-293 cells expressing TLR-7 (human TLR7) | adjuvanticity, conjugates versus free R848 [1]
1 | RLK(PEG-FIM)-NH2 (Arg-Leu-Lys(PEG‑FIM)-NH2; reading uncertain; also: printed as RLK(PEG-FIM)-NH2) [RLK-PEG-FIM-01] | also active in the TLR-7 and TLR-8 cell line but to a much lesser extent compared to R848 | also active in the TLR-7 and TLR-8 cell line but to a much lesser extent compared to R848 | 
2 | CCOCc1nc2c(N)nc3ccccc3c2n1CC(C)(C)O [Peptide R848, [4-Amino-2-(ethoxymethyl)-1H-imidazo[4,5-c]quinolin-1-yl]-2-methyl-2-propanol, HCl, reference compound] | highly active | highly active | little to no-adjuvanticity
